Key:
D4 receptor = biological target: T1, D4 receptor (Homo sapiens, UniProt P21917); test: pKi for dopamine receptor D4 (Table 1); type: binding
T1 sequence (P21917 1-419): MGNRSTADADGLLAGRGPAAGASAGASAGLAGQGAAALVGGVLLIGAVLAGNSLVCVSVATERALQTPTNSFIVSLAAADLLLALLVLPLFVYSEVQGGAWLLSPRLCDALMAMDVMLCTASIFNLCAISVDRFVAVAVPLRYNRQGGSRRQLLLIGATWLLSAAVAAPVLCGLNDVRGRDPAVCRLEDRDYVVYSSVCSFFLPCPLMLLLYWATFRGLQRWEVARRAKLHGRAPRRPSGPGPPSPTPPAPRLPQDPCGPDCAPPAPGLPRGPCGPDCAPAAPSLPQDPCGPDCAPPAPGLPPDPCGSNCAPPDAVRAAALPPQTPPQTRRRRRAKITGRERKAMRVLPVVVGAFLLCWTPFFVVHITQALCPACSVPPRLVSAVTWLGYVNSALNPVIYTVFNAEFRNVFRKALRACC

D3 dopamine receptor = D3 dopamine receptor (Homo sapiens, UniProt P35462); test: pKi for dopamine receptor D3 (Table 1); type: binding
[1] = biological target: T2, adrenergic receptor Alpha 1A (Homo sapiens, UniProt P35348); test: pKi for adrenergic receptor Alpha1A (Table 1); type: binding
T2 sequence (P35348 1-466): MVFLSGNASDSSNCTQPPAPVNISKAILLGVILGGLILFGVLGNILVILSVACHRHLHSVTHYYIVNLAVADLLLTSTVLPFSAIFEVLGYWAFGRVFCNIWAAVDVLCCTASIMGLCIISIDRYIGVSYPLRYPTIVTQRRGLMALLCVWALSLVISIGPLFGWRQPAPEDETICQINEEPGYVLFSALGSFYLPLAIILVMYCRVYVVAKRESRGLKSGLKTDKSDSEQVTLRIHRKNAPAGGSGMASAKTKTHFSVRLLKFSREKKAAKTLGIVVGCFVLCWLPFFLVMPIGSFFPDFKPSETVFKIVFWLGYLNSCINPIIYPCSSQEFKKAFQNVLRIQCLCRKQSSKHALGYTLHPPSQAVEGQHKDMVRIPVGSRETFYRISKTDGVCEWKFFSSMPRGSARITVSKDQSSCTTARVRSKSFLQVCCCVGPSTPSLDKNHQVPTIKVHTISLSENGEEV

5-HT2C receptor = biological target: T3, 5-HT2C receptor (Homo sapiens, UniProt P28335); test: pKi for 5HT2C receptor (Table 1); type: binding
T3 sequence (P28335 33-458): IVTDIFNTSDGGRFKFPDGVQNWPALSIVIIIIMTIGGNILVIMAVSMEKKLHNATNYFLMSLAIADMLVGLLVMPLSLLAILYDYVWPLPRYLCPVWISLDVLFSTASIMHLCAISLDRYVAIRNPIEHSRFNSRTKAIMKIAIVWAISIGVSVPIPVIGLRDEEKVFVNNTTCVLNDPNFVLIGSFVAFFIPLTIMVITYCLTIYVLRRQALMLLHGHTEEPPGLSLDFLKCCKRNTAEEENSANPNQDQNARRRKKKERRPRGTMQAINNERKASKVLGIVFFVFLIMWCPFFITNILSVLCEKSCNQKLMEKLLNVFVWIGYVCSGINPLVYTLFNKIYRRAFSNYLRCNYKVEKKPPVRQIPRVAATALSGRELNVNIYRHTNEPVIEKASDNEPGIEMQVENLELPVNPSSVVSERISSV

5-HT2A receptor = 5-HT2A receptor (Homo sapiens, UniProt P28223); test: pKi for 5HT2A receptor (Table 1); type: binding
D1 dopamine receptor = D1 dopamine receptor (Homo sapiens, UniProt P21728); test: pKi for dopamine receptor D1 (Table 1); type: binding
5-HT1A receptor = biological target: T4, 5-HT1A receptor (Homo sapiens, UniProt P08908); test: pKi for 5HT1A receptor (Table 1); type: binding
T4 sequence (P08908 1-422): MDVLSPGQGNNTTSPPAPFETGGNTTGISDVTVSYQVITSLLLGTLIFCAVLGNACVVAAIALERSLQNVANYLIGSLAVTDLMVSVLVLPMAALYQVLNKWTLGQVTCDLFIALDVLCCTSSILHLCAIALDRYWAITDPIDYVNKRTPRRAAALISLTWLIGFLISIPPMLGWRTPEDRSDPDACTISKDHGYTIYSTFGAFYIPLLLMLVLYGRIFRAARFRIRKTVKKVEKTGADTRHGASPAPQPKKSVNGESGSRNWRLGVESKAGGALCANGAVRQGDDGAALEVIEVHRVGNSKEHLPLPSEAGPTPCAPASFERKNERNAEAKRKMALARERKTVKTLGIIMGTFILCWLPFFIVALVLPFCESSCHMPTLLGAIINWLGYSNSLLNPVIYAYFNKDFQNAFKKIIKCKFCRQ

[2] = biological target: T5, adrenergic receptor Alpha 2A (Homo sapiens, UniProt P08913); test: pKi for adrenergic receptor Alpha2A (Table 1); type: binding
T5 sequence (P08913 1-465): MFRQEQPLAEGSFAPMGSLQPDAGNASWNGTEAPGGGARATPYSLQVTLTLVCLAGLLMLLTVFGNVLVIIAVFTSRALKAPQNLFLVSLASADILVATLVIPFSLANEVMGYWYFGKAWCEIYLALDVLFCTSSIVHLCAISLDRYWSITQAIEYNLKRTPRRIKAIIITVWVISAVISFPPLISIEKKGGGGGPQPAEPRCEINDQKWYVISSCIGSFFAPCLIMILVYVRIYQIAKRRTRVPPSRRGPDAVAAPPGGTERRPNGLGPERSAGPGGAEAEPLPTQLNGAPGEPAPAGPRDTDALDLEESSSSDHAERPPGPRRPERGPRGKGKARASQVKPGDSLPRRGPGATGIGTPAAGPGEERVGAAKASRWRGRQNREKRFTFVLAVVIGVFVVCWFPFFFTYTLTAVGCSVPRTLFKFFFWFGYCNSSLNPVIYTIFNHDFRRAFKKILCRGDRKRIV

5-HT1D receptor = 5-HT1D receptor (Homo sapiens, UniProt P28221); test: pKi for 5HT1D receptor (Table 1); type: binding
5-HT2B receptor = 5-HT2B receptor (Homo sapiens, UniProt P41595); test: pKi for 5HT2B receptor (Table 1); type: binding
5-HT1B receptor = 5-HT1B receptor (Homo sapiens, UniProt P28222); test: pKi for 5HT1B receptor (Table 1); type: binding
other 5HT receptors = test: pKi towards other 5HT receptors; type: binding; settings: 5HT receptors other than 5-HT2A
other dopamine receptors = test: pKi towards other dopamine receptors; type: binding; settings: dopamine receptors other than D4
[3] = test system: patients with treatment refractory major depression; test: Semi-naturalistic open label study of low dose pipamperone in treatment refractory major depression; type: in vivo, human
[4] = biological target: adrenergic receptor Alpha 2C (Homo sapiens, UniProt P18825); test: pKi for adrenergic receptor Alpha2C (Table 1); type: binding
[5] = biological target: adrenergic receptor Beta 1 (Homo sapiens, UniProt P08588); test: pKi for adrenergic receptor Beta1 (Table 1); type: binding
D2 dopamine receptor = D2 dopamine receptor (Homo sapiens, UniProt P14416); test: pKi for dopamine receptor D2 (Table 1); type: binding
[6] = biological target: adrenergic receptor Alpha 2B (Homo sapiens, UniProt P18089); test: pKi for adrenergic receptor Alpha2B (Table 1); type: binding
5-HT7 (rat) receptor = 5-HT7 (rat) receptor (Rattus norvegicus, UniProt P32305); test: pKi for 5HT7 rat receptor (Table 1); type: binding
[7] = biological target: adrenergic receptor Beta 2 (Homo sapiens, UniProt P07550); test: pKi for adrenergic receptor Beta2 (Table 1); type: binding
5-HT6 (rat) receptor = 5-HT6 (rat) receptor (Rattus norvegicus, UniProt P31388); test: pKi for 5HT6 rat receptor (Table 1); type: binding
5-HT1E receptor = 5-HT1E receptor (Homo sapiens, UniProt P28566); test: pKi for 5HT1E receptor (Table 1); type: binding
patients = settings: clinical trials; cited from earlier work

Chain of D3 dopamine receptor (P35462 whole entry): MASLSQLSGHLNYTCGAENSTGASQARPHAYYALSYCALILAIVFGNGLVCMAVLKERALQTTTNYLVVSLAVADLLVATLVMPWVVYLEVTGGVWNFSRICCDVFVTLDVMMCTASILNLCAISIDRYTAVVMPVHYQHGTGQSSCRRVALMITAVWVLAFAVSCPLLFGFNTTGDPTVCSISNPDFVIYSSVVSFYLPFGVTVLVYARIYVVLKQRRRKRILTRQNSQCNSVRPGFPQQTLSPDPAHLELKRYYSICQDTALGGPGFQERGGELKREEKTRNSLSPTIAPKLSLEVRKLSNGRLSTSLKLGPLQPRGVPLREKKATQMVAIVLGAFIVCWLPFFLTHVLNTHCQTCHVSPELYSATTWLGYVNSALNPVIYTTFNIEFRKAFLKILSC
Chain of 5-HT2B receptor (P41595 whole entry): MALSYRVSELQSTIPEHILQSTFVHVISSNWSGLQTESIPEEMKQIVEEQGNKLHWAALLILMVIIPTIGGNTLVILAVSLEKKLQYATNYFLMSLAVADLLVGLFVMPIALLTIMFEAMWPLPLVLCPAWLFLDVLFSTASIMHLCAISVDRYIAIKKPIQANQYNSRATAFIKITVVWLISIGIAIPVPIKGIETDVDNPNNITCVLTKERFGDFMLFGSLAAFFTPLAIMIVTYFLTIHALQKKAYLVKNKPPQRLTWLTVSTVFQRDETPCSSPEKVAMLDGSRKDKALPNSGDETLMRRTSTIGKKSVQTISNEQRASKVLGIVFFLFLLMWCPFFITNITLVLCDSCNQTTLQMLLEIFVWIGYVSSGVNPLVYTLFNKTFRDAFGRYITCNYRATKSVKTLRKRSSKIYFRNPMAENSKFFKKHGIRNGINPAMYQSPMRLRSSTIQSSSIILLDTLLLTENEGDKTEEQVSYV
Chain of D1 dopamine receptor (P21728 whole entry): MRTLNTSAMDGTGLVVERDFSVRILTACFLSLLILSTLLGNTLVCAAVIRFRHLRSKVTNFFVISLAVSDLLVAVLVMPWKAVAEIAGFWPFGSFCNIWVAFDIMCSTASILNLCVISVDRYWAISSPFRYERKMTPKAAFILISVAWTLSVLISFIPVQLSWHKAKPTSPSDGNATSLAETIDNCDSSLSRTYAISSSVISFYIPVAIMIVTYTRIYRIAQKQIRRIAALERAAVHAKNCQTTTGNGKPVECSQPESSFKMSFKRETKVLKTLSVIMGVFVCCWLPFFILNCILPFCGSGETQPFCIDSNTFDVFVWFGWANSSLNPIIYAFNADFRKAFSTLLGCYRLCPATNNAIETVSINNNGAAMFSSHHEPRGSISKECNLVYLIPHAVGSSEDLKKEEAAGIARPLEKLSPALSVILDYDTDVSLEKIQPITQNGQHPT
Chain of D2 dopamine receptor (P14416 whole entry): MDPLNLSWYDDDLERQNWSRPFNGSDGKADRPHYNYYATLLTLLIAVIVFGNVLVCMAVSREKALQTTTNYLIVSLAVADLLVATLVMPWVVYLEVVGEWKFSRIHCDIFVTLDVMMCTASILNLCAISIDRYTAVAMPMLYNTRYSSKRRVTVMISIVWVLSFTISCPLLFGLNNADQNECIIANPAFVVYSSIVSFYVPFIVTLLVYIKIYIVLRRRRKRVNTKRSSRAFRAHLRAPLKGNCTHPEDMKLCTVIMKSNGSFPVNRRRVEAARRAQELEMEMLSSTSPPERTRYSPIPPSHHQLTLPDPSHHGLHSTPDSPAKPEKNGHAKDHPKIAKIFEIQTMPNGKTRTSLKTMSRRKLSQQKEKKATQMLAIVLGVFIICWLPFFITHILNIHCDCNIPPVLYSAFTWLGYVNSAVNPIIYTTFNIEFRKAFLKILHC
Chain of 5-HT2A receptor (P28223 whole entry): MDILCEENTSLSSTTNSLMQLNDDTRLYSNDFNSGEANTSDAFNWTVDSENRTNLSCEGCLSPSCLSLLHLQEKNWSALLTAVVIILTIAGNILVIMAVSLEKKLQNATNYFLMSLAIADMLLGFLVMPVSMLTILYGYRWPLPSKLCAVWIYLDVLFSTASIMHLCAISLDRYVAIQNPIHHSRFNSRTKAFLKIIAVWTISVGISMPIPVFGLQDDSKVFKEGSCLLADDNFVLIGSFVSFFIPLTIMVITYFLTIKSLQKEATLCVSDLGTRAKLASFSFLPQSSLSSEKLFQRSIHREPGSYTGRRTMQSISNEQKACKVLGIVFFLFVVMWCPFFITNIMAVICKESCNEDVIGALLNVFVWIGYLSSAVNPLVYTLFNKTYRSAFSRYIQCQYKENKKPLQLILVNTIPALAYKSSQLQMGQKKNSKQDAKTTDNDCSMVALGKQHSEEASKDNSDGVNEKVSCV
Chain of 5-HT1D receptor (P28221 whole entry): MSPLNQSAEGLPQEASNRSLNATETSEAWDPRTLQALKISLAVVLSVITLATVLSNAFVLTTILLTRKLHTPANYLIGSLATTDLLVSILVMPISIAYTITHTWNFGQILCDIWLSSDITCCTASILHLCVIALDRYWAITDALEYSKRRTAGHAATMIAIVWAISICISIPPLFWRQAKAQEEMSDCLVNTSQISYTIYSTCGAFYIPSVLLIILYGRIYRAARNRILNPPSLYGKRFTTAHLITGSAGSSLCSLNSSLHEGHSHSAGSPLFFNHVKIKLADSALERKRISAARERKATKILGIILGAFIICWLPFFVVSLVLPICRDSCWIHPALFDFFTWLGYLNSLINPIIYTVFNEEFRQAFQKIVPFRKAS
Chain of 5-HT1B receptor (P28222 whole entry): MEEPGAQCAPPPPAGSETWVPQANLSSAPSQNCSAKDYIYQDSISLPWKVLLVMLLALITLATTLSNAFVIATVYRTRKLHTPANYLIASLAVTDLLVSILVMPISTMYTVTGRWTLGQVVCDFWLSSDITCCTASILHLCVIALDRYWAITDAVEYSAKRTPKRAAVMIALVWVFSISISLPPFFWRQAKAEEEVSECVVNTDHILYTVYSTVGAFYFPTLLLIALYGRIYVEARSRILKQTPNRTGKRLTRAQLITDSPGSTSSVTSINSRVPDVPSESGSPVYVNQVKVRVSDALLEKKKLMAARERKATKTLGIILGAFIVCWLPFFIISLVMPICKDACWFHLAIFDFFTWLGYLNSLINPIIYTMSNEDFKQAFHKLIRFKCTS
Chain of adrenergic receptor Alpha 2B (P18089 whole entry): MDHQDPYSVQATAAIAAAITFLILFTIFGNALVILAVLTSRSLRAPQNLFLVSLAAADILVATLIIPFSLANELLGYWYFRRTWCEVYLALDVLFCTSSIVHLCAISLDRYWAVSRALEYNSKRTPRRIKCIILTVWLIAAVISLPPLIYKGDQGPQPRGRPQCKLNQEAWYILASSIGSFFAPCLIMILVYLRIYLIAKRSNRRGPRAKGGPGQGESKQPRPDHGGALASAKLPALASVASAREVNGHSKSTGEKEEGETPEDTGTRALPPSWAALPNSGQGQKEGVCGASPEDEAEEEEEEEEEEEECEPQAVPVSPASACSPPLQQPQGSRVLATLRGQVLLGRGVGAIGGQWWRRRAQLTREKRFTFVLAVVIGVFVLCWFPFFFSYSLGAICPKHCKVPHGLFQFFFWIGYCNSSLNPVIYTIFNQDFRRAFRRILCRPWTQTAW
Chain of adrenergic receptor Beta 1 (P08588 whole entry): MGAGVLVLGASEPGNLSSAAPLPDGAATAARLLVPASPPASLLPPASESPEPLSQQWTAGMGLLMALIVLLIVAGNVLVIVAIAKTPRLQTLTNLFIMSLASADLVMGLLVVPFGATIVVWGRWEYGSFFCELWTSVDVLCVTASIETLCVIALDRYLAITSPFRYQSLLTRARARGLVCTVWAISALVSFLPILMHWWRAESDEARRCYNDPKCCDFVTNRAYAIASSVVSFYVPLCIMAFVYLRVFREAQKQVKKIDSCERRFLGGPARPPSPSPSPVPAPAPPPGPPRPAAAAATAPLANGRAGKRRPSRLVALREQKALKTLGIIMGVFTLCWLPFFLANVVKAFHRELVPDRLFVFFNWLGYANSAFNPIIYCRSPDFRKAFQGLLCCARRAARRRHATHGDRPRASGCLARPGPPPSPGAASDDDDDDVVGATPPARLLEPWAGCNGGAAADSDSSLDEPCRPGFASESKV
Chain of 5-HT1E receptor (P28566 whole entry): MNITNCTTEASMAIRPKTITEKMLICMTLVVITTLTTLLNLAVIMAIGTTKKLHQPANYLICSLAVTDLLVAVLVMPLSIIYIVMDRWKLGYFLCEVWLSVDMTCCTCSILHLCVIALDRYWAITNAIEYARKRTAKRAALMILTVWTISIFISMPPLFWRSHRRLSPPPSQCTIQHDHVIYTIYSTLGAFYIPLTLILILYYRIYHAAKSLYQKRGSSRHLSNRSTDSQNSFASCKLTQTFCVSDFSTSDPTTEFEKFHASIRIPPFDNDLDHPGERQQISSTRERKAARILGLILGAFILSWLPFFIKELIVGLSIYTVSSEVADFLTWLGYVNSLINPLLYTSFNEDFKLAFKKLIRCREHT
Chain of 5-HT6 (rat) receptor (P31388 whole entry): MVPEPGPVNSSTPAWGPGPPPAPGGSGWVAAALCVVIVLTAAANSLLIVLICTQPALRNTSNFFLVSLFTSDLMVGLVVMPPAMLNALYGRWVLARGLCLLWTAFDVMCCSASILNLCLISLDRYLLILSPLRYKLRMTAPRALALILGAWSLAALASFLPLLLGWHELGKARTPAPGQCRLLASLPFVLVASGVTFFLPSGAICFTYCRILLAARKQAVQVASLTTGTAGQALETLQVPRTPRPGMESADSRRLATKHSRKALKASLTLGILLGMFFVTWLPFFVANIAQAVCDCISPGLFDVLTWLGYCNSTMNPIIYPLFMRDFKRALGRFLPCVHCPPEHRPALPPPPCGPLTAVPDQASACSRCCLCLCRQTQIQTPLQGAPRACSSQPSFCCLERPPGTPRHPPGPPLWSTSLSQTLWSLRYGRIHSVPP

| pKi D4 (D4 receptor) | pKi D3 (D3 dopamine receptor) | pKi Alpha1A [1] | pKi 5HT2C (5-HT2C receptor) | pKi 5HT2A (5-HT2A receptor) | pKi 5HT1A (5-HT1A receptor) | pKi Alpha2A [2] | Compound | also measured |
| --- | --- | --- | --- | --- | --- | --- | --- | --- |
|  |  |  |  |  |  |  | CCNC(=O)N1CCN(CCCC(c2ccc(F)cc2)c2ccc(F)cc2)CC1 [Amperozide] | Ki (D4 receptor): > 1000 nM |
|  |  |  |  |  |  |  | Fc1cccc2c1O[C@H]1CNC[C@@H]1O2 [Fluparoxan] | Ki (5-HT2A receptor): > 1000 nM |
| 6-7 | 7-8 |  |  |  |  | <6 | OC1(c2ccc(Cl)cc2)CCN(Cc2c[nH]c3ccccc23)CC1 [L741626] | pKi 5HT1D (5-HT1D receptor): <6; pKi 5HT2B (5-HT2B receptor): 6-7; pKi 5HT1B (5-HT1B receptor): <6 |
|  |  |  |  |  |  |  | NC(=O)C1(N2CCCCC2)CCN(CCCC(=O)c2ccc(F)cc2)CC1 [Pipamperone, 1′-[3-(p-Fluorobenzoyl)propyl]-[1,4′-bipiperidine]-4′-carboxamide] | Ki (D4 receptor): ≤ 10 nM; pKi towards other 5HT receptors (other 5HT receptors): less than 8; pKi towards other dopamine receptors (other dopamine receptors): less than 8; tolerability in patients with depression ([3]; 1-20 mg/day PO, 8 weeks): generally well tolerated; anti-depressant effect on treatment refractory patients ([3]; 1-20 mg/day PO, 8 weeks, refractory towards SSRIs): apparent; sedative effects ([3]; doses used in the study (1-20 mg/day), observed at higher doses): lacking; anti-depressant effect ([3]; extremely unconventional low dose, 1-20 mg/day PO, 8 weeks, open label): apparent |
| 7-8 | 7-8 | 8-9 | 7-8 | >9 | 8-9 | 6-7 | O=C(CC1CCN(CCOc2cccc3c2OCCO3)C1)c1ccc(F)cc1 (centres unmarked) [S16924] | pKi Alpha2C [4]: 6-7; pKi Beta1 [5]: <6; pKi D2 (D2 dopamine receptor): 7-8; pKi Alpha2B [6]: 7-8; pKi 5HT7rat (5-HT7 (rat) receptor): 7-8; pKi 5HT2B (5-HT2B receptor): 8-9; pKi Beta2 [7]: <6; pKi 5HT6rat (5-HT6 (rat) receptor): 7-8 |
| 8-9 | 6-7 | >9 | 6-7 | 8-9 | 7-8 | 6-7 | O=C1N(CCN2CCC(c3noc4cc(F)ccc34)CC2)CCN1c1ccccc1 [S18327] | pKi D2 (D2 dopamine receptor): 7-8; pKi D1 (D1 dopamine receptor): 7-8 |
| <6 | >9 | 6-7 | 7-8 | 6-7 | <6 | <6 | N#Cc1ccc2c(c1)[C@H]1CN(CCCCNC(=O)c3ccc(-c4ccccc4)cc3)C[C@@H]1CO2 [S33084] | pKi D2 (D2 dopamine receptor): 7-8; pKi 5HT1D (5-HT1D receptor): 6-7; pKi D1 (D1 dopamine receptor): 6-7; pKi 5HT2B (5-HT2B receptor): 6-7; pKi 5HT1B (5-HT1B receptor): 6-7 |
|  |  |  |  |  |  |  | OCCOCCN1CCN(C2=Nc3ccccc3Sc3ccccc32)CC1 [Seroquel] | Ki (5-HT1E receptor): > 1000 nM |
|  |  |  |  |  |  |  | CN(C)CCOC1=Cc2ccccc2Sc2ccc(Cl)cc21 [Zotepine] | Ki (D4 receptor): 10 to 100 nM |
|  |  |  |  |  |  |  | CN(C)CCCC1(c2ccc(F)cc2)OCc2cc(C#N)ccc21 (centres unmarked) [citalopram] | patients reporting one or more of the listed side effects (patients): over 10% |

| Compound | pKi D4 (D4 receptor) | pKi D3 (D3 dopamine receptor) | pKi Alpha1A [1] | pKi 5HT2C (5-HT2C receptor) | pKi 5HT2A (5-HT2A receptor) | pKi 5HT1A (5-HT1A receptor) | pKi Alpha2A [2] | also measured |
| --- | --- | --- | --- | --- | --- | --- | --- | --- |
| CCN1CCC[C@H]1CNC(=O)c1c(O)c(Cl)cc(Cl)c1OC (racemic) [Raciopride] | <6 | 8-9 | <6 | <6 | 6-7 | <6 | <6 | pKi D1 (D1 dopamine receptor): <6 |

Source: US20120010242A1 (ALKERSTRAAT 30 A, priority 2009, published 2012)
